pEC50: −log10 of the molar value.

For this experiment, the target named is T1, hSTING (Homo sapiens, UniProt Q86WV6, G230A/H232R/R293Q/R71H).
T1 construct: host or cells: THP1-Dual KO-IFNAR2 cells
T1 sequence (Q86WV6 whole entry R71H/G230A/H232R/R293Q): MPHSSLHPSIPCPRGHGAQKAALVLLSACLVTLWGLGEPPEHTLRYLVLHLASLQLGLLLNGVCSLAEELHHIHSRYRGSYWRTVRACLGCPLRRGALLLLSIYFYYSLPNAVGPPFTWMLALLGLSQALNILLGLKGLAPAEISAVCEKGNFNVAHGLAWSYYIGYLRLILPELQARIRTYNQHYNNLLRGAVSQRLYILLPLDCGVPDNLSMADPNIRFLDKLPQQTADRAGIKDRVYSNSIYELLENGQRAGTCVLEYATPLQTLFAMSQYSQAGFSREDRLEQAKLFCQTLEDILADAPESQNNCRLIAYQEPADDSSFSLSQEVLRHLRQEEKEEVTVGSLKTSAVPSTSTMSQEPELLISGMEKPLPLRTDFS
Nature of the experiment: STING reporter assay (luciferase) in THP1-Dual KO-IFNAR2 cells stimulated with 2'3'cGAMP. The class given is cell-based. Particulars: 2'3'cGAMP 15 μM, 24 h, luciferase reporter activity. The essentials:
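THP1-Dual KO-IFNAR2 cells (2×10E6 cells/mL) exposed to compounds at 0.0017-100 μM final, then stimulated with 2′3′cGAMP (15 μM final) delivered by Lipofectamine 2000 transfection. After 24 h at 37° C, secreted luciferase in supernatant read by QUANTI-Luc luminescence; EC50 calculated.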
(Reporter assays use an easily measured gene product as a stand-in for the process of interest.)
In general, pEC50 refers to −log10 of the EC50, conventionally taken in molar units. Read a high pEC50 as a low EC50. Turning to `O=C(Nc1ccnc(C2CCN(CC(F)(F)F)CC2)c1)Nc1c[nH]c2cc(F)c(F)cc12` [Compound 213, 1-(5,6-difluoro-1H-indol-3-yl)-3-(2-(1-(2,2,2-trifluoroethyl)piperidin-4-yl)pyridin-4-yl)urea], the pEC50 is 5.30 to 6.00.

Turning to `O=C(Nc1cnn(C2CCC3(CC2)CC3)c1)Nc1c[nH]c2ccc(Cl)cc12` [Compound 214, 1-(5-chloro-1H-indol-3-yl)-3-(1-(spiro[2.5]octan-6-yl)-1H-pyrazol-4-yl)urea], the pEC50 is 6.00 to 6.70.

Take `O=C(Nc1cnn(C2CC(F)(F)C2)c1)Nc1c[nH]c2ccc(Cl)cc12` [Compound 215, 1-(5-chloro-1H-indol-3-yl)-3-(1-(3,3-difluorocyclobutyl)-1H-pyrazol-4-yl)urea]: the pEC50 is 6.00 to 6.70.

`O=C(Nc1cnn(C2CC(F)(F)C2)c1)Nc1c[nH]c2cc(F)c(F)cc12` [Compound 216, 1-(5,6-difluoro-1H-indol-3-yl)-3-(1-(3,3-difluorocyclobutyl)-1H-pyrazol-4-yl)urea] gave a pEC50 of 5.30 to 6.00.

On to `CC(CC1CCC1)n1cc(NC(=O)Nc2c[nH]c3ccc(Cl)cc23)cn1` (centres unmarked) [Compound 217, 1-(5-chloro-1H-indol-3-yl)-3-(1-(1-cyclobutylpropan-2-yl)-1H-pyrazol-4-yl)urea], for which the pEC50 was 6.00 to 6.70.

Turning to `O=C(Nc1ccc(C2CN(CC(F)(F)F)C2)c(Cl)c1)Nc1c[nH]c2ccc(Cl)cc12` [Compound 218, 1-(5-chloro-1H-indol-3-yl)-3-(3-chloro-4-(1-(2,2,2-trifluoroethyl)azetidin-3-yl)phenyl)urea], the pEC50 was 6.70 to 7.40.

On to `O=C(Nc1ccnc(C2CCCN(CC(F)(F)F)C2)c1)Nc1c[nH]c2cc(F)c(F)cc12` (centres unmarked) [Compound 219, 1-(5,6-difluoro-1H-indol-3-yl)-3-(2-(1-(2,2,2-trifluoroethyl)piperidin-3-yl)pyridin-4-yl)urea], for which the pEC50 was 5.30 to 6.00.

`O=C(Nc1ccnc(C2CCC(F)(F)CC2)c1)Nc1c[nH]c2cc(F)c(F)cc12` [Compound 220, 1-(5,6-difluoro-1H-indol-3-yl)-3-(2-(4,4-difluorocyclohexyl)pyridin-4-yl)urea] gave a pEC50 of 6.00 to 6.70.

With `O=C(Nc1cc(Cl)nc(C2CCC(F)(F)CC2)c1)Nc1c[nH]c2ccc(Cl)cc12` [Compound 221, 1-(5-chloro-1H-indol-3-yl)-3-(2-chloro-6-(4,4-difluorocyclohexyl)pyridin-4-yl)urea], the pEC50 was 6.70 to 7.40.

Regarding `O=C(Nc1cnn(CC2CCC(F)(F)CC2)c1)Nc1c[nH]c2ccc(Cl)cc12` [Compound 222, 1-(5-chloro-1H-indol-3-yl)-3-(1-((4,4-difluorocyclohexyl)methyl)-1H-pyrazo1-4-yl)urea], the pEC50 was 6.00 to 6.70.

`O=C(Nc1cnn(C2CCN(CCC(F)(F)F)CC2)c1)Nc1c[nH]c2ccc(Cl)cc12` [Compound 223, 1-(5-chloro-1H-indol-3-yl)-3-(1-(1-(3,3,3-trifluoropropyl)piperidin-4-yl)-1H-pyrazo1-4-yl)urea] showed a pEC50 of 5.30 to 6.00.

Turning to `O=C(Nc1ccc(C2CC(F)(F)C2)c(Cl)c1)Nc1c[nH]c2cc(F)c(F)cc12` [Compound 225, 1-(3-chloro-4-(3,3-difluorocyclobutyl)phenyl)-3-(5,6-difluoro-1H-indol-3-yl)urea], the pEC50 was 6.00 to 6.70.

Take `O=C(Nc1ccc(C2CC(F)(F)C2)c(Cl)c1)Nc1c[nH]c2ccc(Cl)cc12` [Compound 226, 1-(5-chloro-1H-indol-3-yl)-3-(3-chloro-4-(3,3-difluorocyclobutyl)phenyl)urea]: the pEC50 is 6.70 to 7.40.

`O=C(Nc1cnc(C2CC(F)(F)C2)c(F)c1)Nc1c[nH]c2ccc(Cl)cc12` [Compound 227, 1-(5-chloro-1H-indol-3-yl)-3-(6-(3,3-difluorocyclobutyl)-5-fluoropyridin-3-yl)urea] showed a pEC50 of 6.70 to 7.40.

`COCCN(C(=O)Nc1c[nH]c2ccc(Cl)cc12)c1cnc(C2CCC(F)(F)CC2)c(Cl)c1` [Compound 228, 3-(5-chloro-1H-indol-3-yl)-1-(5-chloro-6-(4,4-difluorocyclohexyl)pyridin-3-yl)-1-(2-methoxyethyl)urea]: the pEC50 was 6.00 to 6.70.

For `CCN(C(=O)Nc1c[nH]c2ccc(Cl)cc12)c1cnc(C2CCN(CC(F)(F)F)CC2)c(Cl)c1` [Compound 229, 3-(5-chloro-1H-indol-3-yl)-1-(5-chloro-6-(1-(2,2,2-trifluoroethyl)piperidin-4-yl)pyridin-3-yl)-1-ethylurea], the pEC50 is 6.00 to 6.70.

As to `O=C(Nc1cnn(C2CCC(F)(F)CC2)c1)Nc1c[nH]c2cc(F)c(Cl)cc12` [Compound 230, 1-(5-chloro-6-fluoro-1H-indol-3-yl)-3-(1-(4,4-difluorocyclohexyl)-1H-pyrazol-4-yl)urea], the pEC50 is 6.00 to 6.70.

Compound `O=C(Nc1cnc(Cl)c(C2CCC(F)(F)CC2)c1)Nc1c[nH]c2ccc(Cl)cc12` [Compound 231, 1-(5-chloro-1H-indol-3-yl)-3-(6-chloro-5-(4,4-difluorocyclohexyl)pyridin-3-yl)urea] had a pEC50 of 6.70 to 7.40.

In turn, `O=C(Nc1cnc(N2CCC(F)(F)CC2)c(Cl)c1)Nc1c[nH]c2c(Br)cc(Cl)cc12` [Compound 232, 1-(7-bromo-5-chloro-1H-indol-3-yl)-3-(5-chloro-6-(4,4-difluoropiperidin-1-yl)pyridin-3-yl)urea] showed a pEC50 of 6.00 to 6.70.

The compound `O=C(Nc1cnc(N2CC(C(F)(F)F)C2)c(Cl)c1)Nc1c[nH]c2ccc(Cl)cc12` [Compound 233, 1-(5-chloro-1H-indol-3-yl)-3-(5-chloro-6-(3-(trifluoromethyl)azetidin-1-yl)pyridin-3-yl)urea] had a pEC50 of 6.70 to 7.40.

Turning to `O=C(Nc1cnn(C2CC3(C2)CC(F)(F)C3)c1)Nc1c[nH]c2ccc(Cl)cc12` [Compound 234, 1-(5-chloro-1H-indol-3-yl)-3-(1-(6,6-difluorospiro[3.3]heptan-2-yl)-1H-pyrazo1-4-yl)urea], the pEC50 was 6.70 to 7.40.

`O=C(Nc1cnn(CC2CCC2)c1)Nc1c[nH]c2ccc(Cl)cc12` [Compound 235, 1-(5-chloro-1H-indol-3-yl)-3-(1-(cyclobutylmethyl)-1H-pyrazol-4-yl)urea]: the pEC50 is 6.00 to 6.70.

`O=C(Nc1cnc(N2CCC3(CC2)CC3(F)F)c(Cl)c1)Nc1c[nH]c2cc(F)c(F)cc12` [Compound 236, 1-(5-chloro-6-(1,1-difluoro-6-azaspiro[2.5]octan-6-yl)pyridin-3-yl)-3-(5,6-difluoro-1H-indol-3-yl)urea] showed a pEC50 of 6.70 to 7.40.

`O=C(Nc1cnc(N2CCC3(CC2)CC3(F)F)c(Cl)c1)Nc1c[nH]c2ccc(Cl)cc12` [Compound 237, 1-(5-chloro-1H-indol-3-yl)-3-(5-chloro-6-(1,1-difluoro-6-azaspiro[2.5]octan-6-yl)pyridin-3-yl)urea] showed a pEC50 of 6.70 to 7.40.

Consider `O=C(Nc1cnc(C2CCN(CC(F)(F)F)C2)c(Cl)c1)Nc1c[nH]c2ccc(Cl)cc12` (centres unmarked) [Compound 238, 1-(5-chloro-1H-indol-3-yl)-3-(5-chloro-6-(1-(2,2,2-trifluoroethyl)pyrrolidin-3-yl)pyridin-3-yl)urea], for which the pEC50 is 6.70 to 7.40.

The compound `O=C(Nc1cnc(N2CCC3(CC2)CC3)c(Cl)c1)Nc1c[nH]c2ccc(F)cc12` [Compound 239, 1-(5-chloro-6-(6-azaspiro[2.5]octan-6-yl)pyridin-3-yl)-3-(5-fluoro-1H-indol-3-yl)urea] gave a pEC50 of 6.70 to 7.40.

For `O=C(Nc1cnc(N2CCC3(CC2)CC3)c(F)c1)Nc1c[nH]c2ccc(Cl)cc12` [Compound 240, 1-(5-chloro-1H-indol-3-yl)-3-(5-fluoro-6-(6-azaspiro[2.5]octan-6-yl)pyridin-3-yl)urea], the pEC50 was 6.70 to 7.40.

In the case of `O=C(Nc1cnc(N2CCC3(CC2)CC3)c(Cl)c1)Nc1c[nH]c2cc(F)c(F)cc12` [Compound 241, 1-(5-chloro-6-(6-azaspiro[2.5]octan-6-yl)pyridin-3-yl)-3-(5,6-difluoro-1H-indol-3-yl)urea], the pEC50 is 6.70 to 7.40.

`O=C(Nc1cnc(C2CCN(CCC(F)(F)F)C2)c(Cl)c1)Nc1c[nH]c2ccc(Cl)cc12` (centres unmarked) [Compound 242, 1-(5-chloro-1H-indol-3-yl)-3-(5-chloro-6-(1-(3,3,3-trifluoropropyl)pyrrolidin-3-yl)pyridin-3-yl)urea] had a pEC50 of 6.70 to 7.40.

Take `O=C(Nc1cnc(N2CCC(F)(F)C2)c(Cl)c1)Nc1c[nH]c2ccc(Cl)cc12` [Compound 243, 1-(5-chloro-1H-indol-3-yl)-3-(5-chloro-6-(3,3-difluoropyrrolidin-1-yl)pyridin-3-yl)urea]: the pEC50 is 6.70 to 7.40.

`O=C(Nc1cnc(N2CC3(C2)CC(F)(F)C3)c(Cl)c1)Nc1c[nH]c2c(Br)cc(Cl)cc12` [Compound 244, 1-(7-bromo-5-chloro-1H-indol-3-yl)-3-(5-chloro-6-(6,6-difluoro-2-azaspiro[3.3]heptan-2-yl)pyridin-3-yl)urea]: the pEC50 is 5.30 to 6.00.

`O=C(Nc1cnc(N2CCN(CCC(F)(F)F)CC2)c(Cl)c1)Nc1c[nH]c2ccc(F)cc12` [Compound 245, 1-(5-chloro-6-(4-(3,3,3-trifluoropropyl)piperazin-1-yl)pyridin-3-yl)-3-(5-fluoro-1H-indol-3-yl)urea] showed a pEC50 of 6.70 to 7.40.

With `O=C(Nc1ccc(C2CC(F)(F)C2)c(Cl)c1)Nc1c[nH]c2ccccc12` [Compound 246, 1-(3-chloro-4-(3,3-difluorocyclobutyl)phenyl)-3-(1H-indol-3-yl)urea], the pEC50 is 6.70 to 7.40.

For the compound `O=C(Nc1cnc(C2CCC(F)(F)CC2)c(Cl)c1)Nc1c[nH]c2c(Br)cc(Cl)cc12` [Compound 247, 1-(7-bromo-5-chloro-1H-indol-3-yl)-3-(5-chloro-6-(4,4-difluorocyclohexyl)pyridin-3-yl)urea], the pEC50 was 6.00 to 6.70.

Turning to `O=C(Nc1cnc(C2CCC(F)(F)CC2)c(Cl)c1)Nc1c[nH]c2ccccc12` [Compound 248, 1-(5-chloro-6-(4,4-difluorocyclohexyl)pyridin-3-yl)-3-(1H-indol-3-yl)urea], the pEC50 is 6.70 to 7.40.

Source of the values: US20230127839A1, “COMPOUNDS AND COMPOSITIONS FOR TREATING CONDITIONS ASSOCIATED WITH STING ACTIVITY” (IFM Due, Inc., priority 2019, published 2023).
